# Measured values published in patent US20260078130A1, “NAMPT MODULATORS, PREPARATIONS, AND USES THEREOF” (SIRONAX LTD., priority 2022, published 2026).
# Assays:
# [1] = biological target: T1, human enzyme NAMPT (full length) (Homo sapiens, UniProt P43490); experiment: NMN fluorescence biochemical assay (stimulation of NMN synthesis by NAMPT); details: for EC50: NMN fluorescence assay, purified human NAMPT 100 nM, concentration giving half-maximal activation, read-out: Enzymatic EC50; for Enzymatic Emax: fold change of maximal activation compared to DMSO
# T1 construct: human enzyme NAMPT (full length)
# T1 sequence (P43490 whole entry): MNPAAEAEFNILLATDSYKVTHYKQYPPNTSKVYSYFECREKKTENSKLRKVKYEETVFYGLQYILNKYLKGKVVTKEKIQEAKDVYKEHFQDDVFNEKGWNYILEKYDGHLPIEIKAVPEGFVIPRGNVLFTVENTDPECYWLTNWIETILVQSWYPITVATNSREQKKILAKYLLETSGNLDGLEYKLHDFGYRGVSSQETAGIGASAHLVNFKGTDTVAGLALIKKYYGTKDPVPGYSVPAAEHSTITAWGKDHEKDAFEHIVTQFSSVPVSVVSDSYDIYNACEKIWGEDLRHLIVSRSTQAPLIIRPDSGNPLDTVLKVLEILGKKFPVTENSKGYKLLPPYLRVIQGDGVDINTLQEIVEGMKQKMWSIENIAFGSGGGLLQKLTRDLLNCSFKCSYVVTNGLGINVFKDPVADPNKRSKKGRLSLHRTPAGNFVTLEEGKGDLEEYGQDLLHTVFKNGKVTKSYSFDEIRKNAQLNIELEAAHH
# How it was run: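 Full-length human NAMPT (100 nM) was preincubated 15 min at 37 °C with compound in 50 mM Tris-HCl pH 7.5, 10 mM MgCl2, 2 mM DTT, then reacted 1 h at 37 °C with 50 μM NAM, 100 μM PRPP, 4 mM ATP (stated solution concentrations). NMN was derivatised with acetophenone/KOH then formic acid and read at Ex/Em 382/445 nm; EC50 and Emax (fold over DMSO) reported.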
# [2] = system: endogenous NAMPT in U2OS cells; experiment: Cellular NAD+ modulation assay (NAD/NADH-Glo, U2OS cells); format: cell-based; details: Homo sapiens, 24 hours incubation, cellular NAD+; for maximal fold induction: read-out: Cellular Emax
# How it was run: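 NAD/NADH-Glo luminescence quantified NAD+ after acid treatment (60 °C, 15 min) and neutralization of DTAB lysates. Beforehand, U2OS cells seeded 16 h earlier received compound concentration series for 24 h at 37 °C. Values given as half-maximal activation concentration (EC50) and maximal fold change versus DMSO (Emax).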
Structure (SMILES),EC50 [1] [nM],Enzymatic Emax [1],EC50 [2] [nM],maximal fold induction [2]
"Cc1ccc2c(c1)C(Cc1c(Cl)cnn1C)N(CC1CC3(CNC(=O)O3)C1)C2=O (stereo not shown) [Compound 485, 2-((3-((4-chloro-1-methyl-1H-pyrazol-5-yl)methyl)-5-methyl-1-oxoisoindolin-2-yl)methyl)-5-oxa-7-azaspiro[3.4]octan-6-one]",500 to 5000,B (3≥B>2),< 500,> 1.5
"Cn1ncc(Cl)c1CC1c2cc(F)ccc2C(=O)N1CC1CC2(CNC(=O)O2)C1 (stereo not shown) [Compound 486, 2-((3-((4-chloro-1-methyl-1H-pyrazol-5-yl)methyl)-5-fluoro-1-oxoisoindolin-2-yl)methyl)-5-oxa-7-azaspiro[3.4]octan-6-one]",500 to 5000,B (3≥B>2),< 500,> 1.5
"Cn1ncc(Cl)c1CC1c2ccccc2C(=O)N1C[C@]1(F)C[C@@]2(CNC(=O)O2)C1 (stereo partly shown) [Compound 487, (2r,4r)-2-((1-((4-chloro-1-methyl-1H-pyrazol-5-yl)methyl)-3-oxoisoindolin-2-yl)methyl)-2-fluoro-5-oxa-7-azaspiro[3.4]octan-6-one]",500 to 5000,B (3≥B>2),< 500,> 1.5
"O=C1NCC2(CC(CN3C(=O)c4ccccc4C3Cc3c(Cl)nc4ccccn34)C2)O1 (stereo not shown) [Compound 488, 2-((1-((2-chloroimidazo[1,2-a]pyridin-3-yl)methyl)-3-oxoisoindolin-2-yl)methyl)-5-oxa-7-azaspiro[3.4]octan-6-one]",500 to 5000,B (3≥B>2),< 500,> 1.5
"Cn1nnc(Cl)c1CC1c2ccccc2C(=O)N1CC1CC2(CNC(=O)O2)C1 (stereo not shown) [Compound 489, 2-((1-((4-chloro-1-methyl-1H-1,2,3-triazol-5-yl)methyl)-3-oxoisoindolin-2-yl)methyl)-5-oxa-7-azaspiro[3.4]octan-6-one]",500 to 5000,B (3≥B>2),500 to 5000,> 1.5
"Cn1ncc(Cl)c1CC1c2ccccc2C(=O)N1CC1CC2(CNC(=S)O2)C1 (stereo not shown) [Compound 490, 3-((4-chloro-1-methyl-1H-pyrazol-5-yl)methyl)-2-((6-thioxo-5-oxa-7-azaspiro[3.4]octan-2-yl)methyl)isoindolin-1-one]",500 to 5000,B (3≥B>2),500 to 5000,> 1.5
"Cc1ncnc(C#N)c1CC1c2ccccc2C(=O)N1CC1CC2(CNC(=O)O2)C1 (stereo not shown) [Compound 491, 6-methyl-5-((3-oxo-2-((6-oxo-5-oxa-7-azaspiro[3.4]octan-2-yl)methyl)isoindolin-1-yl)methyl)pyrimidine-4-carbonitrile]",500 to 5000,B (3≥B>2),< 500,> 1.5
"Cc1cncc(C#N)c1CC1c2ccccc2C(=O)N1CC1CC2(CNC(=O)O2)C1 (stereo not shown) [Compound 492, 5-methyl-4-((3-oxo-2-((6-oxo-5-oxa-7-azaspiro[3.4]octan-2-yl)methyl)isoindolin-1-yl)methyl)nicotinonitrile]",< 500,B (3≥B>2),< 500,> 1.5
"Cc1ccc(=O)n(C)c1CC1c2ccccc2C(=O)N1CC1CC2(CNC(=O)O2)C1 (stereo not shown) [Compound 493, 2-((1-((1,3-dimethyl-6-oxo-1,6-dihydropyridin-2-yl)methyl)-3-oxoisoindolin-2-yl)methyl)-5-oxa-7-azaspiro[3.4]octan-6-one]",500 to 5000,B (3≥B>2),500 to 5000,> 1.5
"Cn1nc(C#N)c(Cl)c1CC1c2ccccc2C(=O)N1CC1CC2(CNC(=O)O2)C1 (stereo not shown) [Compound 495, 4-chloro-1-methyl-5-((3-oxo-2-((6-oxo-5-oxa-7-azaspiro[3.4]octan-2-yl)methyl)isoindolin-1-yl)methyl)-1H-pyrazole-3-carbonitrile]",500 to 5000,B (3≥B>2),< 500,> 1.5
